Earlier results, collected in patent publication US20220305218A1, “LUMINAL OXYGEN DELIVERY AND DEVICE FOR TREATING DISEASES AND CONDITIONS ASSOCIATED WITH STRICT ANAEROBIC MICROORGANISMS” (priority 2021, published 2022).

Key:
[1] = tested on: C. difficile strains
[2] = tested on: C. difficile

In the case of `Cc1ncc([N+](=O)[O-])n1CCO` [metronidazole], the resistance rate [1] is given as about 1%.

In the case of `O=O` [oxygen], the “time C. difficile can persist in a vegetative state” value ([2]; room air (20% oxygen, 160 mm Hg)) is given as about 24 h and the “oxygen partial pressure at which C. difficile is unable to grow” value ([2]; strict, obligate anaerobe) is given as at least 3 mm Hg.

In the case of `CN[C@H](CC(C)C)C(=O)N[C@H]1C(=O)N[C@@H](CC(N)=O)C(=O)N[C@H]2C(=O)N[C@H]3C(=O)N[C@H](C(=O)N[C@H](C(=O)O)c4cc(O)cc(O)c4-c4cc3ccc4O)[C@H](O)c3ccc(c(Cl)c3)Oc3cc2cc(c3O[C@@H]2O[C@H](CO)[C@@H](O)[C@H](O)[C@H]2O[C@H]2C[C@](C)(N)[C@H](O)[C@H](C)O2)Oc2ccc(cc2Cl)[C@H]1O` [vancomycin], the resistance rate [1] is listed as about 1%.
